From patent publication US7579356B2, “Thia-tetraazaacenaphthylene kinase inhibitors” (Janssen Pharmaceutica NV, priority 2005, dated 2009)

Key:
Assay type in all cases: biochemical
Lyn kinase (human) = biological target: T1, Lyn kinase (human) (Homo sapiens, UniProt P07948); assay: Lyn Kinase Assay; conditions: test concentration of 2 μM
T1 construct: purchased Upstate Biotechnology, Lake Placid, N.Y
Procedure: A mixture of a 10× kinase buffer (500 mM MOPS at pH 7.5, 1 mM EGTA, 1 mM Sodium Vanadate, 1% β-mercaptoethanol and 100 mM Magnesium Acetate), ATP (5 μM final from a 10 mM stock), polyGluTyr (0.1 mg/mL final from a 1 mg/mL stock), γ-^33P ATP (10 μCl/μL stock) and water (for a total of 20 μL/well) was added to each well of a Streptavidin Flashplate.
Test compound in 100% DMSO (0.5 μL) was added to the appropriate wells. Diluted Lyn kinase (human)(Accession Number EMBL M16038) (Upstate Biotechnology, Lake Placid, N.Y.) (diluted in a buffer consisting of 50 mM Tris at pH 7.5, 0.1 mM EGTA, Sodium Vanadate (0.1 mM), β-mercaptoethanol (0.1%) and 1 mg/mL bovine serum albumin) (2.5 μL) was added to the wells to initiate the reactions.
The reaction plates were incubated at 30° C. for 40 min. The reaction was terminated by the addition of a 3% phosphoric acid solution (5 μL). The reaction product (10 μL) was spotted onto a P30 filtermat and washed for 5 minutes in phosphoric acid (75 mM). The wash sequence was repeated two more times, followed with one final wash in methanol. The plates were then dried, sealed and read on the TopCount scintillation counter after adding 30 μL scintillation fluid.
(§1) The Lyn inhibition values were derived according to the procedure described in Example 164 and are shown as percent in Table 3 at a test concentration of 2 μM. For those compounds with an IC50, the IC50 value in μM is shown in parentheses. For compounds with multiple test values, each value represents a separate assay result.

c-Src kinase (human) = biological target: T2, c-Src kinase (human) (Homo sapiens, UniProt P12931); assay: c-Src Kinase Assay; conditions: test concentration of 2 μM; multiple values are separate assay results
T2 construct: purchased Upstate Biotechnology, Lake Placid, N.Y
Procedure: A mixture of a 10× kinase buffer (80 mM MOPS at pH 7.0, 2 mM EDTA and 100 mM Magnesium Chloride), ATP (5 μM final from a 10 mM stock), a Cdc2 peptide KVEKIGEGTYGVVYK (100 μM final from a 2.5 mM stock), γ-^33P ATP (10 μCl/μL stock) and water (for a total of 20 μL/well) was added to each well of a Streptavidin Flashplate.
Test compound in 100% DMSO (0.5 μL) was added to the appropriate wells. Diluted c-Src kinase (human) (Accession Number SWISS-PROT P12931) (Upstate Biotechnology, Lake Placid, N.Y.) (diluted in a buffer consisting of 20 mM MOPS at pH 7.0, 1 mM EDTA, β-mercaptoethanol (0.1%), Brij-35 (0.01%), glycerol (5%), and 1 mg/mL bovine serum albumin) (2.5 μL) was added to the wells to initiate the reactions. The reaction plates were incubated at 30° C. for 40 min. The reaction was terminated by the addition of a 3% phosphoric acid solution (5 μL). The reaction product (10 μL) was spotted onto a P30 filtermat and washed for 5 minutes in phosphoric acid (75 mM). The wash sequence was repeated two more times, followed with one final wash in methanol. The plates were then dried, sealed and read on the TopCount scintillation counter after adding 30 μL scintillation fluid.
as §1, with “c-Src” for “Lyn”, “using” for “according to”, “percent inhibition formula provided” for “procedure described”, “2” for “3”

EGFR = biological target: T3, EGFR (Homo sapiens, UniProt P00533); assay: EGFR Kinase Assay; conditions: for IC50: GST-EGFR, ATP 5 μM; for inhibition at 2 µM: test concentration of 2 μM, compounds without an IC50, read-out: EGFR inhibition in percent
T3 construct: The intracellular portion of EGFR started at nucleotide 2189 (corresponding to amino acid 667) and ended at the termination codon; made in house; host or cells: Sf9 insect cells (baculovirus)
How it was run: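 Potency came from triplicate 16-point half-log titrations starting at 200 uM, with IC50 fitted from % inhibition against log concentration, or % inhibition at 2 μM otherwise. Reaction: Sf9-made GST–EGFR cytoplasmic region (aa 667 onward), biotin-polyGluTyr, 5 μM ATP with 33P tracer, pH 8.0 Tris/Mg/vanadate/DTT, 30 °C for 1 h; captured on streptavidin Flashplates and counted.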

HER-2 = biological target: T4, HER-2 (Homo sapiens, UniProt P04626); assay: HER-2 Kinase Assay; conditions: for inhibition at 1 µM: test concentration of 1 μM; for IC50: value in parentheses
T4 construct: His6 with thrombin site (N); purchased Proqinase (Freiburg, Germany)
How it was run: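 Read-out was scintillation counting of 33P incorporated into biotinylated polyGluTyr captured on streptavidin plates. Reactions ran 1 h at 30 °C with GST-fused HER-2 residues 679–1255, 1 μM ATP, Mn2+ and Mg2+ at pH 7.5; data given as percent inhibition at 1 μM, with IC50 where determined.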

T1 sequence (P07948 whole entry): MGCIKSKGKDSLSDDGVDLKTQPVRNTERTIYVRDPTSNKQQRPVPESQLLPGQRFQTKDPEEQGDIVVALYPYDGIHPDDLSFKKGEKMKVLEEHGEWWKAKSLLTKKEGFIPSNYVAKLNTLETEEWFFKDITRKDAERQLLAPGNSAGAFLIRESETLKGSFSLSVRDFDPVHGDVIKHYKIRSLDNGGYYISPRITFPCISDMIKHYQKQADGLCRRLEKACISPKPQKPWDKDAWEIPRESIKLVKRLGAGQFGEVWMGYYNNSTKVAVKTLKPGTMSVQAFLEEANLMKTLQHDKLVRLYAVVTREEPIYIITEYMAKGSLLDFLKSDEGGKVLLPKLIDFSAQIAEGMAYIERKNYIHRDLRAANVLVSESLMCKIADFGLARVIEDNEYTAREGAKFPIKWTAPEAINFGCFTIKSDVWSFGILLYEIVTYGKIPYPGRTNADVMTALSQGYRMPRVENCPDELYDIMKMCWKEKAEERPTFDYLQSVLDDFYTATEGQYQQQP
T3 sequence (P00533 669-1210 limits assumed): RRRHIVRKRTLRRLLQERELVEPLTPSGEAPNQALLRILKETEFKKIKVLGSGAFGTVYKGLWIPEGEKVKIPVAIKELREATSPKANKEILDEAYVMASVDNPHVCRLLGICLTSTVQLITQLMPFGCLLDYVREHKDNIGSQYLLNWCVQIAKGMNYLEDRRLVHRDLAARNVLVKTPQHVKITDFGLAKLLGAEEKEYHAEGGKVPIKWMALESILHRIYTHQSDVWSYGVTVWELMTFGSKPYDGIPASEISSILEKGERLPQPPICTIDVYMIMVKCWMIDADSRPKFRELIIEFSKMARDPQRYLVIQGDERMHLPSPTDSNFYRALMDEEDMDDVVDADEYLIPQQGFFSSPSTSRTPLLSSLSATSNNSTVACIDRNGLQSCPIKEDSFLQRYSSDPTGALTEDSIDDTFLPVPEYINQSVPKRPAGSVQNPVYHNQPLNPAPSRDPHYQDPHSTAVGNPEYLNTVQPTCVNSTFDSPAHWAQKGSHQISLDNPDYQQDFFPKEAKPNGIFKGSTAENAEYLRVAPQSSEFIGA
T2 sequence (P12931 whole entry): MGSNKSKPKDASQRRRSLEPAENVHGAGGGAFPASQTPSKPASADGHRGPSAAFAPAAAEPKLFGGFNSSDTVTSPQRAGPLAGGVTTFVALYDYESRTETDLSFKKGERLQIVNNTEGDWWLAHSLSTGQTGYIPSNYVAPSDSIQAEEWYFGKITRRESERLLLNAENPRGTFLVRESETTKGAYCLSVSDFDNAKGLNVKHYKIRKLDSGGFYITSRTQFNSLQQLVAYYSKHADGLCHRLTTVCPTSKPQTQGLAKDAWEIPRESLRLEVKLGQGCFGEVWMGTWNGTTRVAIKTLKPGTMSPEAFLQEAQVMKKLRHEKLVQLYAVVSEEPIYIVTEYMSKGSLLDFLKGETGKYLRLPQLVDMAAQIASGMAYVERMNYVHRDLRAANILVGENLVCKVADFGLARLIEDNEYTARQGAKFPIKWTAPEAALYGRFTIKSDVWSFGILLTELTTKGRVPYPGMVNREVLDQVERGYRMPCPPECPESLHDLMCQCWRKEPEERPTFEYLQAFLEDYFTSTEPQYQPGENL
T4 sequence (P04626 679-1255): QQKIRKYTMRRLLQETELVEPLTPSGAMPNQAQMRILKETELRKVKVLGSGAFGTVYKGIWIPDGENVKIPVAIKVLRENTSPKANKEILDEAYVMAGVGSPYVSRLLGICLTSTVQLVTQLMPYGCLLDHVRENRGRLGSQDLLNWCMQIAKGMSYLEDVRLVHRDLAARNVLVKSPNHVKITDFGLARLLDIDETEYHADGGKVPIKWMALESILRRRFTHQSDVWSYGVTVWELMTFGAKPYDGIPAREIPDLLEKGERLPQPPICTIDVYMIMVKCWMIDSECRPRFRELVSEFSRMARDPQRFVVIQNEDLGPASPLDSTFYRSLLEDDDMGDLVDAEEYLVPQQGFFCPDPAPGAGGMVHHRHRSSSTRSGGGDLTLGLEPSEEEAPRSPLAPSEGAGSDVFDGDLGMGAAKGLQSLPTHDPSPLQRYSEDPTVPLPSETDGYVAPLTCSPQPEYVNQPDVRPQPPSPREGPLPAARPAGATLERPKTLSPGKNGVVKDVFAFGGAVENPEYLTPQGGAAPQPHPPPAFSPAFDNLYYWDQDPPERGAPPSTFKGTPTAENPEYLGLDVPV

Row | inhibition at 2 µM (Lyn kinase (human)) [%] | inhibition at 2 µM (c-Src kinase (human)) [%] | IC50 (EGFR) [nM] | inhibition at 1 µM (HER-2) [%] | IC50 (HER-2) [nM] | inhibition at 2 µM (EGFR) [%] | % Inhibition (Lyn) (Lyn kinase (human); 2 µM) [%] | Compound
1 | 68 | 52 | 223 | 54 | 5440 | – | – | O=C(Nc1ccc(CN2CCOCC2)cc1)c1sc2ncnc3c2c1NC(=O)N3c1ccc(F)cc1Cl [Cpd 16, 5-(2-chloro-4-fluoro-phenyl)-4-oxo-4,5-dihydro-3H-1-thia-3,5,6,8-tetraaza-acenaphthylene-2-carboxylic acid (4-morpholin-4-ylmethyl-phenyl)-amide]
2 | 38 | 32 | 580 | 33 | – | – | – | CN1CCCC(COc2ccc(NC(=O)c3sc4ncnc5c4c3NC(=O)N5c3ccc(Cl)cc3Cl)cc2)C1 (stereo not shown) [Cpd 32, 5-(2,4-dichloro-phenyl)-4-oxo-4,5-dihydro-3H-1-thia-3,5,6,8-tetraaza-acenaphthylene-2-carboxylic acid [4-(1-methyl-piperidin-3-ylmethoxy)-phenyl]-amide]
3 | 36 | 32 | 1890 | 14 | – | – | – | COc1cc(N2C(=O)Nc3c(C(=O)Nc4ccc(CN5CCCCC5)cc4)sc4ncnc2c34)c(Cl)cc1Cl [Cpd 33, 5-(2,4-dichloro-5-methoxy-phenyl)-4-oxo-4,5-dihydro-3H-1-thia-3,5,6,8-tetraaza-acenaphthylene-2-carboxylic acid (4-piperidin-1-ylmethyl-phenyl)-amide]
4 | 10 | 23 | 5370 | -14 | – | – | – | COc1cc(N2C(=O)Nc3c(C(=O)Nc4ccc(OCCN5CCOCC5)c(OC)c4)sc4ncnc2c34)c(Cl)cc1Cl [Cpd 34, 5-(2,4-dichloro-5-methoxy-phenyl)-4-oxo-4,5-dihydro-3H-1-thia-3,5,6,8-tetraaza-acenaphthylene-2-carboxylic acid [3-methoxy-4-(2-morpholin-4-yl-ethoxy)-phenyl]-amide]
5 | -11 | 7 | 5710 | -12 | – | – | – | COc1cc(N2C(=O)Nc3c(C(=O)Nc4ccc(OC)c(OC)c4)sc4ncnc2c34)c(Cl)cc1Cl [Cpd 35, 5-(2,4-dichloro-5-methoxy-phenyl)-4-oxo-4,5-dihydro-3H-1-thia-3,5,6,8-tetraaza-acenaphthylene-2-carboxylic acid (3,4-dimethoxy-phenyl)-amide]
6 | -13 | 11 | 490 | 1 | – | – | – | COc1ccc(NC(=O)c2sc3ncnc4c3c2NC(=O)N4c2ccc(Br)cc2F)cc1OC [Cpd 37, 5-(4-bromo-2-fluoro-phenyl)-4-oxo-4,5-dihydro-3H-1-thia-3,5,6,8-tetraaza-acenaphthylene-2-carboxylic acild (3,4-dimethoxy-phenyl)-amide]
7 | 11 | 16 | 410 | 24 | – | – | – | COc1cc(NC(=O)c2sc3ncnc4c3c2NC(=O)N4c2ccc(Br)cc2F)ccc1OCCN1CCOCC1 [Cpd 39, 5-(4-bromo-2-fluoro-phenyl)-4-oxo-4,5-dihydro-3H-1-thia-3,5,6,8-tetraaza-acenaphthylene-2-carboxylic acid [3-methoxy-4-(2-morpholin-4-yl-ethoxy)-phenyl]-amide]
8 | – | -17 | – | – | 4380 | 36 | – | COc1cc(N2C(=O)Nc3c(C(=O)Nc4ccc(CN5CCN(C)CC5)cc4)sc4ncnc2c34)ccc1Br [Cpd 85, 5-(4-bromo-3-methoxy-phenyl)-4-oxo-4,5-dihydro-3H-1-thia-3,5,6,8-tetraaza-acenaphthylene-2-carboxylic acid [4-(4-methyl-piperazin-1-ylmethyl)-phenyl]-amide]

The remaining lines, values behind:

Row | Compound | inhibition at 2 µM (Lyn kinase (human)) [%] | inhibition at 2 µM (c-Src kinase (human)) [%] | IC50 (EGFR) [nM] | inhibition at 1 µM (HER-2) [%] | IC50 (HER-2) [nM] | inhibition at 2 µM (EGFR) [%] | % Inhibition (Lyn) (Lyn kinase (human); 2 µM) [%]
9 | COc1ccc(-c2sc3ncnc4c3c2NC(=O)N4c2ccc(F)c(Cl)c2)cc1OC [Cpd 9, 5-(3-chloro-4-fluoro-phenyl)-2-(3,4-dimethoxy-phenyl)-3H,5H-1-thia-3,5,6,8-tetraaza-acenaphthylen-4-one] | -7 | 26 | 1030 | – | – | – | –
10 | COc1cc(NC(=O)c2sc3ncnc4c3c2NC(=O)N4c2cc(OC)c(OC)c(OC)c2Cl)ccc1OCC1CCCCO1 (stereo not shown) [Cpd 30, 5-(2-chloro-3,4,5-trimethoxy-phenyl)-4-oxo-4,5-dihydro-3H-1-thia-3,5,6,8-tetraaza-acenaphthylene-2-carboxylic acid [3-methoxy-4-(tetrahydro-pyran-2-ylmethoxy)-phenyl]-amide] | -6 | 1 | 19200 | 19 | – | – | –
11 | COc1cc(NC(=O)c2sc3ncnc4c3c2NC(=O)N4c2cc(OC)c(OC)c(OC)c2)ccc1OCC1CCCCO1 (stereo not shown) [Cpd 31, 5-(3,4,5-trimethoxy-phenyl)-4-oxo-4,5-dihydro-3H-1-thia-3,5,6,8-tetraaza-acenaphthylene-2-carboxylic acid [3-methoxy-4-(tetrahydro-pyran-2-ylmethoxy)-phenyl]-amide] | -7 | 8 | 42700 | 1 | – | – | –
12 | COc1cc(N2C(=O)Nc3c(C(=O)N(C)C)sc4ncnc2c34)ccc1Br [Cpd 83, 5-(4-bromo-3-methoxy-phenyl)-4-oxo-4,5-dihydro-3H-1-thia-3,5,6,8-tetraaza-acenaphthylene-2-carboxylic acid dimethylamide] | – | 44 | – | – | > 10000 | -2 | –
13 | COc1ccc(NC(=O)c2sc3ncnc4c3c2NC(=O)N4c2ccc(Oc3ccccc3)cc2)cc1OC [Cpd 99, 4-oxo-5-(4-phenoxy-phenyl)-4,5-dihydro-3H-1-thia-3,5,6,8-tetraaza-acenaphthylene-2-carboxylic acid (3,4-dimethoxy-phenyl)-amide] | – | -9 | 27 | 60 | 915 | – | –
14 | O=C(Nc1ccc(CCN2CCCCC2)cc1)c1sc2ncnc3c2c1NC(=O)N3c1ccc(Oc2ccccc2)c(F)c1 [Cpd 114, 5-(3-fluoro-4-phenoxy-phenyl)-4-oxo-4,5-dihydro-3H-1-thia-3,5,6,8-tetraaza-acenaphthylene-2-carboxylic acid [4-(2-piperidin-1-yl-ethyl)-phenyl]-amide] | 40 | – | 25 | 60 | 536 | – | 48.5
15 | CC(C)(C)OC(=O)NCCCNC(=O)c1sc2ncnc3c2c1NC(=O)N3c1ccc2c(ccn2Cc2cccc(F)c2)c1 [Cpd 141, [3-({5-[1-(3-fluoro-benzyl)-1H-indol-5-yl]-4-oxo-4,5-dihydro-3H-1-thia-3,5,6,8-tetraaza-acenaphthylene-2-carbonyl}-amino)-propyl]-carbamic acid tert-butyl ester] | 37 | 26 | – | – | ~100000 | – | –
